ChEMBL document CHEMBL1201862, “PubChem BioAssay data set” (2004)
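Protocol summary: plate cells (96-well), add compound at 5 concentrations, incubate 48 h, interpolate endpoints linearly. GI50: concentration for 50% inhibition of growth.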 Calls of active or inactive are those of the source. No stated cut-off is given here; in the data, active = GI50 up to about 1.1 µM and inactive = higher.

Columns and labels:
Assay in all cases: inhibition of tumour cell growth, NCI panel, 48 h
SF-295 = tested on: SF-295
K562 = tested on: K562
MOLT-4 = tested on: MOLT-4
SW-620 = tested on: SW-620
RXF 393 = tested on: RXF 393
Malme-3M = tested on: Malme-3M
SNB-75 = tested on: SNB-75
OVCAR-8 = tested on: OVCAR-8
HT-29 = tested on: HT-29
U-251 = tested on: U-251
KM12 = tested on: KM12
HCC 2998 = tested on: HCC 2998
786-0 = tested on: 786-0
NCI-H226 = tested on: NCI-H226
SK-MEL-5 = tested on: SK-MEL-5
SR = tested on: SR
NCI-H522 = tested on: NCI-H522

Measured: GI50

Cc1cc(C)c(/C=N/NS(=O)(=O)c2ccccc2)c(C)c1
inactive: SF-295 38.5 µM | K562 94.4 µM | MOLT-4 44.7 µM | SW-620 > 100 µM | RXF 393 44.9 µM | Malme-3M > 100 µM | SNB-75 > 100 µM | OVCAR-8 71.6 µM | HT-29 > 100 µM | U-251 > 100 µM | KM12 > 100 µM | HCC 2998 > 100 µM | 786-0 > 100 µM | NCI-H226 > 100 µM | SK-MEL-5 > 100 µM | SR 31.4 µM

CN1C/C(=C\c2ccco2)c2nc(N)nc(-c3ccco3)c2C1
inactive: NCI-H522 > 100 µM | SF-295 > 100 µM | K562 > 100 µM | MOLT-4 48.9 µM | SW-620 > 100 µM | RXF 393 > 100 µM | Malme-3M > 100 µM | SNB-75 85.3 µM | OVCAR-8 75.2 µM | HT-29 99.8 µM | U-251 > 100 µM | KM12 31.5 µM | HCC 2998 > 100 µM | 786-0 > 100 µM | NCI-H226 34.5 µM | SK-MEL-5 72.8 µM

O=S(O)CCCCSSCc1ccccc1CSSCCCCS(=O)O
inactive: NCI-H522 4.43 µM | SF-295 17 µM | K562 16.6 µM | SW-620 25.8 µM | RXF 393 7.94 µM | Malme-3M 8.91 µM | SNB-75 9.16 µM | OVCAR-8 17.1 µM | HT-29 8.34 µM | U-251 46.7 µM | KM12 19 µM | HCC 2998 19 µM | 786-0 > 100 µM | SK-MEL-5 8.79 µM
active: MOLT-4 0.904 µM

COc1ccc(C2Oc3cc(OC)c(O)c(C)c3[C@H]2C)cc1 (some centres undefined)
inactive: NCI-H522 35.2 µM | SF-295 > 100 µM | K562 61.2 µM | MOLT-4 33.3 µM | SW-620 66.4 µM | RXF 393 23 µM | Malme-3M > 100 µM | SNB-75 7.87 µM | OVCAR-8 70 µM | HT-29 > 100 µM | U-251 > 100 µM | KM12 > 100 µM | HCC 2998 > 100 µM | 786-0 > 100 µM | NCI-H226 26.9 µM | SK-MEL-5 62.7 µM

N#Cc1ccc(/C=N\N2C(=O)c3ccccc3C2=O)cc1
inactive: SF-295 > 100 µM | K562 > 100 µM | MOLT-4 > 100 µM | SW-620 > 100 µM | RXF 393 > 100 µM | Malme-3M > 100 µM | SNB-75 > 100 µM | OVCAR-8 > 100 µM | HT-29 > 100 µM | KM12 > 100 µM | HCC 2998 > 100 µM | 786-0 > 100 µM | NCI-H226 > 100 µM | SK-MEL-5 > 100 µM | SR > 100 µM

CCc1cccc(C)c1NS(=O)(=O)c1ccccc1
inactive: SF-295 > 100 µM | K562 > 100 µM | MOLT-4 > 100 µM | SW-620 > 100 µM | RXF 393 > 100 µM | Malme-3M > 100 µM | SNB-75 > 100 µM | OVCAR-8 > 100 µM | HT-29 > 100 µM | U-251 > 100 µM | KM12 > 100 µM | HCC 2998 > 100 µM | 786-0 > 100 µM | NCI-H226 24.3 µM | SK-MEL-5 > 100 µM

CN(C)CN(C)c1nc(N(C)C)nc(N(C)C)n1
inactive: NCI-H522 > 100 µM | SF-295 > 100 µM | K562 > 100 µM | MOLT-4 > 100 µM | SW-620 > 100 µM | RXF 393 61.1 µM | Malme-3M > 100 µM | SNB-75 > 100 µM | OVCAR-8 > 100 µM | HT-29 > 100 µM | U-251 > 100 µM | KM12 > 100 µM | HCC 2998 > 100 µM | 786-0 > 100 µM | SK-MEL-5 > 100 µM | SR > 100 µM

N#Cc1nc(Nc2cccc3ccccc23)sc1N
inactive: NCI-H522 15.9 µM | SF-295 28.3 µM | K562 25.8 µM | MOLT-4 11.5 µM | SW-620 41.2 µM | Malme-3M 26.2 µM | SNB-75 42.8 µM | OVCAR-8 31.4 µM | HT-29 41.1 µM | U-251 22.2 µM | KM12 30.2 µM | HCC 2998 20.3 µM | 786-0 33 µM | NCI-H226 41.8 µM | SR 3.05 µM

COc1ccc(C)cc(O)c1=O
inactive: NCI-H522 30.4 µM | SF-295 27.9 µM | K562 45.4 µM | MOLT-4 9.06 µM | SW-620 44 µM | RXF 393 39.7 µM | Malme-3M 57.1 µM | SNB-75 > 100 µM | HT-29 44 µM | U-251 42.8 µM | KM12 > 100 µM | 786-0 10.5 µM | NCI-H226 > 100 µM | SK-MEL-5 67.8 µM | SR 5.28 µM
